# Article PMC8023496, “Immune mediation of HMG-like DSP1 via Toll-Spätzle pathway and its specific inhibition by salicylic acid analogs” (PLoS Pathogens, 2021)
# Biological target: rSe-DSP1 (Se-DSP1; dorsal switch protein 1)
# Assay: thermal shift assay (Protein Thermal Shift dye), melting temperature vs ligand concentration
# Parameters: species or system Spodoptera exigua
# Settings: 500 ng protein; ligand 0-8 uM; compounds dissolved in DMSO
row,Compound,Kd
1,CCOc1cc(O)ccc1OC [3-ethoxy-4-methoxyphenol],119 ± 20 nM
2,O=C(O)c1ccccc1O [salicylic acid],238 ± 40 nM
